# pIC50: −log10 of the molar value. Where a name gives a salt, the structure may show the parent alone.
# Molecular target: HPK1 (Homo sapiens (Human), UniProt Q92918)
# Assay: HPK1 kinase activity inhibition test (ADP-Glo, luminescence)
# Type: biochemical
# Conditions: HPK1 5 nM, ATP 2 μM, read-out: IC50, inhibitory effects of compounds on HPK1 kinase activity
# Description: 1. HPK1 Kinase Activity Inhibition Test
# The kinase activity of HPK1 is manifested as activity of autophosphorylation and phosphorylation of downstream substrates. In the process of autophosphorylation, additional substrates are not required, and ATP is consumed to generate ADP. The amount of the product was measured by ADP-Glo reagent and luminescence method to reflect kinase activity.
# Test compounds: compounds prepared in the examples of this application.
# Prepare compound stock solution: dissolve the compound to be tested in 100% DMSO to make a 10 mM stock solution;
# Prepare 4× Kinase Reaction Buffer:
# Prepare 2×HPK1 Kinase Solution:
# Dilute the stock solution of the compound to be tested by 5 times with […], make a 4-fold equal dilution in a 96-well dilution plate, add 1 μL of the compound to 49 µL of kinase reaction buffer, and shake on a microplate shaker for 20 minutes. Transfer 2 μL of […] kinase solution to 384 reaction plate, add 1 μL of the test compound to the 384 reaction plate (Greiner, 784075), centrifuge for 1 minute (1000 rpm/min), incubate at 25° C. for 10 minutes. Transfer […] of the 4×ATP mixture to a 384 reaction plate, centrifuge for 1 minute (1000 rpm/mm), and incubate at 25° C. for 60 minutes. In the reaction system, the final concentration of DMSO was […]. Transfer 4 μL of ADP-Glo to a 384 reaction plate, centrifuge for 1 minute (1000 rpm/min), and incubate at 25° C. for 40 minutes. Transfer 8 μL detection solution to a 384 reaction plate, centrifuge for 1 minute (1000 rpm/min), and incubate at 25° C. for 40 minutes. The […] signal was read using a Biotek multi-function plate reader, and the […] (half inhibitory concentration) of the compound was obtained using a four-coefficient nonlinear fitting formula.
# HPK1, sequence (Q92918 whole entry): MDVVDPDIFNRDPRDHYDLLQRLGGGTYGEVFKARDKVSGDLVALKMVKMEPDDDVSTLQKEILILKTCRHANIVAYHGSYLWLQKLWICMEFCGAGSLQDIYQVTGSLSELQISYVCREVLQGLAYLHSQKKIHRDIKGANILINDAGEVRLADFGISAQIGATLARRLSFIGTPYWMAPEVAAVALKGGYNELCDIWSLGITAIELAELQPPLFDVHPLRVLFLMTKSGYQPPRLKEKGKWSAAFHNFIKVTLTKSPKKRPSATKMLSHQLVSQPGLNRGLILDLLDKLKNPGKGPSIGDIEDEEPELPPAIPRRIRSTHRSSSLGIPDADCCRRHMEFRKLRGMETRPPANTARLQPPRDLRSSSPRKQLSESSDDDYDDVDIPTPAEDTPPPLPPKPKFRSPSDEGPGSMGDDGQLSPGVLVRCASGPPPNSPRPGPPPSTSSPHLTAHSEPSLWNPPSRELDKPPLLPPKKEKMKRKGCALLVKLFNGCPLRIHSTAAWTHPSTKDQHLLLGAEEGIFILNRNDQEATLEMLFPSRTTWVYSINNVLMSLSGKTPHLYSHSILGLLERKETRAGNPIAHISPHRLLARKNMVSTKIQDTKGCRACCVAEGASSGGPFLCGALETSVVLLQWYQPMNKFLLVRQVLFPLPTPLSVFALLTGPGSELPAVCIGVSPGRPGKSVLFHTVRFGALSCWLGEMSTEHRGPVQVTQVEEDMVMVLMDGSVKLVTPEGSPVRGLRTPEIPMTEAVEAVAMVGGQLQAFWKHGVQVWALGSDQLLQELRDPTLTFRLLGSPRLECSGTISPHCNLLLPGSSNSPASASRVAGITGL
row,pIC50,Compound
1,5.70 to 6.30,COc1cc(C)c(-n2nc3c(-c4ccc(N5CCN(C)CC5)cc4)n[nH]c3cc2=O)cn1 [Compound 149]
2,6.30 to 7.30,"Cc1cccc(F)c1-n1nc2c(-c3ccc4c(c3)CCN(C3CCOCC3)C4)n[nH]c2cc1=O [Compound 195, 5-(2-fluoro-6-methylphenyl)-3-(2-(tetrahydro-2H-pyran-4-yl)-1,2,3,4-tetrahydroisoquinolin-6-yl)-1H-pyrazolo[4,3-c]pyridazin-6(5H)-one]"
3,5.70 to 6.30,"Cc1cccc(F)c1-n1nc2c(-c3cnn(C)c3)n[nH]c2cc1=O [Compound 17, 5-(2-fluoro-6-methylphenyl)-3-(1-methyl-1H-pyrazol-4-yl)-1H-pyrazolo[4,3-c]pyridazin-6(5H)-one]"
4,6.30 to 7.30,"Cc1cccc(F)c1-n1nc2c(-c3ccc4c(c3)CN(C3CCOCC3)CC4)n[nH]c2cc1=O [Compound 167, 5-(2-fluoro-6-methylphenyl)-3-(2-(tetrahydro-2H-pyran-4-yl)-1,2,3,4-tetrahydroisoquinolin-7-yl)-1H-pyrazolo[4,3-c]pyridazin-6(5H)-one]"
5,≥ 7.30,"CCN1CCN(c2ccc(-c3n[nH]c4cc(=O)n(-c5c(C)cccc5F)nc34)cn2)CC1 [Compound 101, 3-(6-(4-ethylpiperazin-1-yl)pyrid-3-yl)-5-(2-fluoro-6-methylphenyl)-1H-pyrazolo[4,3-c]pyridazin-6(5H)-one]"
6,6.30 to 7.30,"COc1cccc(F)c1-n1nc2c(-c3ccc4c(c3)CCN(C)C4)n[nH]c2cc1=O [Compound 72, 5-(2-fluoro-6-methoxyphenyl)-3-(2-methyl-1,2,3,4-tetrahydroisoquinolin-6-yl)-1H-pyrazolo[4,3-c]pyridazin-6(5H)-one]"
7,5.70 to 6.30,"CN1CCN(c2ccc(-c3n[nH]c4cc(=O)n(-c5cccc6c5COC6)nc34)cc2)CC1 [Compound 75, 5-(1,3-dihydroisobenzofuran-4-yl)-3-(4-(4-methylpiperazin-1-yl)phenyl)-1H-pyrazolo[4,3-c]pyridazin-6(5H)-one]"
8,6.30 to 7.30,Cc1cccc(F)c1-n1nc2c(-c3ccc(N4CCN(CC(F)F)CC4)cc3)n[nH]c2cc1=O [Compound 84]
9,≥ 7.30,"COc1cccc(F)c1-n1nc2c(-c3ccc(N4CCN5C(=O)CN(C)CC5C4)cc3)n[nH]c2cc1=O (stereo not drawn) [Compound 132, 8-(4-(5-(2-fluoro-6-methoxyphenyl)-6-oxo-5,6-dihydro-1H-pyrazolo[4,3-c]pyridazin-3-yl)phenyl)-2-methylhexahydro-1H-pyrazino[1,2-a]pyrazin-4(6H)-one]"
10,5.70 to 6.30,"COc1ccc(-n2nc3c(-c4ccc(C5CCN(C)CC5)cc4)n[nH]c3cc2=O)c(OC)c1 [Compound 26, 5-(2,4-dimethoxyphenyl)-3-(4-(1-methylpiperidin-4-yl)phenyl)-1H-pyrazolo[4,3-c]pyridazin-6(5H)-one]"
11,6.30 to 7.30,"Cc1cccc(F)c1-n1nc2c(-c3ccc4c(c3)C(CO)N(C)CC4)n[nH]c2cc1=O (stereo not drawn) [Compound 184, 5-(2-fluoro-6-methylphenyl)-3-(1-(hydroxymethyl)-2-methyl-1,2,3,4-tetrahydroisoquinolin-7-yl)-1H-pyrazolo[4,3-c]pyridazin-6(5H)-one]"
12,5.70 to 6.30,"Cc1cccc(F)c1-n1nc2c(-c3ccc4c(c3)C(CN)N(C)CC4)n[nH]c2cc1=O (stereo not drawn) [Compound 186, 3-(1-(aminomethyl)-2-methyl-1,2,3,4-tetrahydroisoquinolin-7-yl)-5-(2-fluoro-6-methylphenyl)-1H-pyrazolo[4,3-c]pyridazin-6(5H)-one hydrochloride]"
13,6.30 to 7.30,"Cc1cccc(F)c1-n1nc2c(-c3ccc(N4CCN(C)C(C(=O)O)C4)cc3)n[nH]c2cc1=O (stereo not drawn) [Compound 131, 4-(4-(5-(2-fluoro-6-methylphenyl)-6-oxo-5,6-dihydro-1H-pyrazolo[4,3-c]pyridazin-3-yl)phenyl)-1-methylpiperazin-2-carboxylic acid]"
14,5.70 to 6.30,"Cc1cccc(F)c1-n1nc2c(-c3ccc(CN4CCN(C)CC4=O)cc3)n[nH]c2cc1=O [Compound 15, 5-(2-fluoro-6-methylphenyl)-3-(4-((4-methyl-2-oxo-piperazin-1-yl)methyl)phenyl)-1H-pyrazolo[4,3-c]pyridazin-6(5H)-one]"
15,≥ 7.30,"Cc1cccc(F)c1-n1nc2c(-c3ccc4c(c3)CCN(C3CN(C)C3)C4)n[nH]c2cc1=O [Compound 194, 5-(2-fluoro-6-methylphenyl)-3-(2-(1-methylazetidin-3-yl)-1,2,3,4-tetrahydroisoquinolin-6-yl)-1H-pyrazolo[4,3-c]pyridazin-6(5H)-one]"
16,6.30 to 7.30,"COc1cccc(F)c1-n1nc2c(-c3cccc(N4CCN(C)CC4)c3F)n[nH]c2cc1=O [Compound 209, 3-(2-fluoro-3-(4-methylpiperazin-1-yl)phenyl)-5-(2-fluoro-6-methoxyphenyl)-1H-pyrazolo[4,3-c]pyridazin-6(5H)-one]"
17,6.30 to 7.30,"Cc1cccc(F)c1-n1nc2c(-c3ccc(N4CCN(C)CC4)c(CN(C)C)c3)n[nH]c2cc1=O [Compound 95, 3-(3-((dimethylamino)methyl)-4-(4-methylpiperazin-1-yl)phenyl)-5-(2-fluoro-6-methylphenyl)-1H-pyrazolo[4,3-c]pyridazin-6(5H)-one]"
18,6.30 to 7.30,"Cc1cccc(F)c1-n1nc2c(-c3ccc4c(c3)CN(C3CCN(C)CC3)CC4)n[nH]c2cc1=O [Compound 168, 5-(2-fluoro-6-methylphenyl)-3-(2-(1-methylpiperidin-4-yl)-1,2,3,4-tetrahydroisoquinolin-7-yl)-1H-pyrazolo[4,3-c]pyridazin-6(5H)-one]"
19,≥ 7.30,COc1cccc(F)c1-n1nc2c(-c3ccc(N4CCN(C)CC4)nc3)n[nH]c2cc1=O [Compound 10]
20,6.30 to 7.30,"COc1ccncc1-n1nc2c(-c3ccc(-c4cnn(C)c4)cc3)n[nH]c2cc1=O [Compound 152, 5-(4-methoxypyrid-3-yl)-3-(4-(1-methyl-1H-pyrazol-4-yl)phenyl)-1H-pyrazolo[4,3-c]pyridazin-6(5H)-one]"
21,≥ 7.30,"Cc1cccc(F)c1-n1nc2c(-c3ccc4c(c3)CN(C)[C@H](CO)C4)n[nH]c2cc1=O [Compound 176, (S)-5-(2-fluoro-6-methylphenyl)-3-(3-(hydroxymethyl)-2-methyl-1,2,3,4-tetrahydroisoquinolin-7-yl)-1H-pyrazolo[4,3-c]pyridazin-6(5H)-one]"
22,6.30 to 7.30,"Cc1cccc(F)c1-n1nc2c(-c3ccc4c(c3)CN(C)C(C)(C)C4)n[nH]c2cc1=O [Compound 178, 5-(2-fluoro-6-methylphenyl)-3-(2,3,3-trimethyl-1,2,3,4-tetrahydroisoquinolin-7-yl)-1H-pyrazolo[4,3-c]pyridazin-6(5H)-one]"
23,≥ 7.30,"COc1cccc(F)c1-n1nc2c(-c3cccc(N4CCC(N)CC4)c3)n[nH]c2cc1=O [Compound 205, 3-(3-(4-aminopiperidin-1-yl)phenyl)-5-(2-fluoro-6-methoxyphenyl)-1H-pyrazolo[4,3-c]pyridazin-6(5H)-one]"
24,≥ 7.30,"COc1cccc(F)c1-n1nc2c(-c3ccc(N4CCN5C(=O)OCC5C4)cc3)n[nH]c2cc1=O (stereo not drawn) [Compound 123, 7-(4-(5-(2-fluoro-6-methoxyphenyl)-6-oxo-5,6-dihydro-1H-pyrazolo[4,3-c]pyridazin-3-yl)phenyl)tetrahydro-1H-oxazolo[3,4-a]pyrazin-3(5H)-one]"
25,6.30 to 7.30,"COc1cccc(C)c1-n1nc2c(-c3ccc(N4CCN(C)CC4)nc3)n[nH]c2cc1=O [Compound 97, 5-(2-methoxy-6-methylphenyl)-3-(6-(4-methylpiperazin-1-yl)pyrid-3-yl)-1H-pyrazolo[4,3-c]pyridazin-6(5H)-one]"
26,6.30 to 7.30,"Cc1cccc(F)c1-n1nc2c(-c3ccc4c(c3)CCN(C3CCN(C)CC3)C4)n[nH]c2cc1=O [Compound 196, 5-(2-fluoro-6-methylphenyl)-3-(2-(1-methylpiperidin-4-yl)-1,2,3,4-tetrahydroisoquinolin-6-yl)-1H-pyrazolo[4,3-c]pyridazin-6(5H)-one hydrochloride]"
27,≥ 7.30,"Cc1cccc(F)c1-n1nc2c(-c3cc(N4CCN(C)CC4)ccc3F)n[nH]c2cc1=O [Compound 208, 3-(2-fluoro-5-(4-methylpiperazin-1-yl)phenyl)-5-(2-fluoro-6-methylphenyl)-1H-pyrazolo[4,3-c]pyridazin-6(5H)-one]"

row,Compound,pIC50
1,"COc1ccc(-n2nc3c(-c4ccc(C5=CCN(C)CC5)cc4)n[nH]c3cc2=O)c(OC)c1 [Compound 4, 5-(2,4-dimethoxyphenyl)-3-(4-(1-methyl-1,2,3,6-tetrahydropyridin-4-yl)phenyl)-1H-pyrazolo[4,3-c]pyridazin-6(5H)-one]",≥ 7.30
2,"Cc1ccncc1-n1nc2c(-c3ccc(C4=CCN(C)CC4)cc3)n[nH]c2cc1=O [Compound 150, 3-(4-(1-methyl-1,2,3,6-tetrahydropyridin-4-yl)phenyl)-5-(4-methylpyrid-3-yl)-1H-pyrazolo[4,3-c]pyridazin-6(5H)-one]",5.70 to 6.30
3,"Cc1cccc(F)c1-n1nc2c(-c3cccc(N4CC5CCC(C4)N5C)c3)n[nH]c2cc1=O [Compound 201, 5-(2-fluoro-6-methylphenyl)-3-(3-(8-methyl-3,8-diazabicyclo[3.2.1]octan-3-yl)phenyl)-1H-pyrazolo[4,3-c]pyridazin-6(5H)-one]",≥ 7.30

# Reference: patent US20230322789A1, “PYRAZOLOPYRIDAZINONE COMPOUND, AND PHARMACEUTICAL COMPOSITION AND USE THEREOF” (BroadenBio Co., Ltd., priority 2020, published 2023)
